Measured values as given in patent US20250206727A1, “HETEROCYCLIC SUBSTITUTED AROMATIC COMPOUND, PREPARATION METHOD THEREFOR, HERBICIDAL COMPOSITION AND APPLICATION” (QINGDAO KINGAGROOT CHEMICAL COMPOUND CO., LTD., priority 2022, published 2025).

Legend:
Experiment in all cases: Post-emergence test on weeds (greenhouse, spray at 2-3 leaf stage)
Assay type in all cases: in vivo
Parameters in all cases: key: Level 10: completely dead; Level 9: growth control rate greater than or equal to 90% and less than 100%; Level 8: growth control rate greater than or equal to 80% and less than 90%; Level 7: growth control rate greater than or equal to 70% and less than 80%; Level 6: growth control rate greater than or equal to 60% and less than 70%; Level 5: growth control rate greater than or equal to 50% and less than 60%; Level 4: growth control rate greater than or equal to 40% and less than 50%; Level 3: growth control rate greater than or equal to 30% and less than 40%; Level 2: growth control rate greater than or equal to 20% and less than 30%; Level 1: growth control rate less than 20%; Level 0: no effect
Details in all cases: 60 g a.i./ha, 3 weeks after application
Abutilon theophrasti = tested on: Abutilon theophrasti
From the text: (§1) The activity level criteria for plant damage (i.e., growth control rate) are as follows: • Level 10: completely dead; • Level 9: growth control rate greater than or equal to 90% and less than 100%; • Level 8: growth control rate greater than or equal to 80% and less than 90%; • Level 7: growth control rate greater than or equal to 70% and less than 80%; • Level 6: growth control rate greater than or equal to 60% and less than 70%; • Level 5: growth control rate greater than or equal to 50% and less than 60%; • Level 4: growth control rate greater than or equal to 40% and less than 50%; • Level 3: growth control rate greater than or equal to 30% and less than 40%; • Level 2: growth control rate greater than or equal to 20% and less than 30%; • Level 1: growth control rate less than 20%; • Level 0: no effect.
(§2) The above growth control rates are fresh weight control rates.
(§3) Monocotyledonous and dicotyledonous weed seeds (Descurainia sophia, Capsella bursa-pastoris, Abutilon theophrasti, Galium spurium, Stellaria media, Lithospermum arvense, Rorippa indica, Alopecurus aequalis, Alopecurus japonicus, Eleusine indica, Beckmannia syzigachne, Sclerochloa dura, Erigeron canadensis, Phleum paniculatum, Veronica polita, Bromus japonicus, Aegilops tauschii, Phalaris arundinacea, Amaranthus retrofexus, Chenopodium, Commelina communis, Cichorium endivia, Convolvulus arvensis, Cirsium arvense, Solanum nigrum, Acalypha australis, Digitaria sanguinalis, Echinochloa crus-galli, Setaria viridis, Setaa pumila, Lepochloa chinensis, Monochona vaginalis, Sagitta trifolia, Schoenoplectiella juncoides, Cypenus rotundus, Cyperus ira, Cyperus difformis, Fimbristylis, Portulaca oleracea, Xanthium sibiricum, Ipomoea nil, Eschenbachia japonica, etc.) and major crop seeds (wheat, maize, paddy rice, soybean, cotton, oilseed rape, millet, sorghum, potato, sesame, castor plant, etc.) were placed in plastic pots filled with soil and then covered with 0.5-2 cm of soil to allow them to grow in a favorable greenhouse environment. Two weeks after sowing, the test plants were treated at the stage of 2-3 leaves. The test compounds of the present invention were individually dissolved with acetone, then added with Tween® 80, with 1.5 L/ha of methyl oleate emulsifiable concentrate as a synergist, diluted into solutions of certain concentrations using certain amount of water, and sprayed to the plants using a spray tower. After drug application, the experimental results on weeds were collected after 3 weeks of cultivation in a greenhouse. The compounds were applied at 500, 250, […], 15, and 7.5 g a.i./ha in triplicate, and the results were averaged.

Amaranthus retroflexus = tested on: Amaranthus retroflexus
From the text: as §1, §2, §3

Digitaria sanguinalis = tested on: Digitaria sanguinalis
From the text: as §1, §2, §3

Echinochloa crus-galli = tested on: Echinochloa crus-galli
From the text: as §1, §2, §3

Setaria viridis = tested on: Setaria viridis
From the text: as §1, §2, §3

Veronica polita = tested on: Veronica polita
From the text: as §1, §2, §3

CC1(C(=O)OCc2ccccc2F)ON=C(c2cc(-c3ncc(C(F)(F)F)cc3Cl)c(F)cc2Cl)O1 (racemic) [Compound 133]
10: activity level (fresh weight growth control rate), Abutilon theophrasti (Abutilon theophrasti) | activity level (fresh weight growth control rate), Amaranthus retroflexus (Amaranthus retroflexus) | activity level (fresh weight growth control rate), Digitaria sanguinalis (Digitaria sanguinalis) | activity level (fresh weight growth control rate), Echinochloa crus-galli (Echinochloa crus-galli) | activity level (fresh weight growth control rate), Setaria viridis (Setaria viridis) | activity level (fresh weight growth control rate), Veronica polita (Veronica polita)

CC(C)=NOC(=O)C1(C)ON=C(c2cc(-c3ncc(C(F)(F)F)cc3Cl)c(F)cc2Cl)O1 (racemic) [Compound 137]
10: activity level (fresh weight growth control rate), Abutilon theophrasti (Abutilon theophrasti) | activity level (fresh weight growth control rate), Amaranthus retroflexus (Amaranthus retroflexus) | activity level (fresh weight growth control rate), Digitaria sanguinalis (Digitaria sanguinalis) | activity level (fresh weight growth control rate), Echinochloa crus-galli (Echinochloa crus-galli) | activity level (fresh weight growth control rate), Setaria viridis (Setaria viridis) | activity level (fresh weight growth control rate), Veronica polita (Veronica polita)

CC(=NOC(=O)C1(C)ON=C(c2cc(-c3ncc(C(F)(F)F)cc3Cl)c(F)cc2Cl)O1)C(F)(F)F (racemic) [Compound 139]
10: activity level (fresh weight growth control rate), Abutilon theophrasti (Abutilon theophrasti) | activity level (fresh weight growth control rate), Amaranthus retroflexus (Amaranthus retroflexus) | activity level (fresh weight growth control rate), Digitaria sanguinalis (Digitaria sanguinalis) | activity level (fresh weight growth control rate), Echinochloa crus-galli (Echinochloa crus-galli) | activity level (fresh weight growth control rate), Setaria viridis (Setaria viridis) | activity level (fresh weight growth control rate), Veronica polita (Veronica polita)

CCOC(C)=NOC(=O)C1(C)ON=C(c2cc(-c3ncc(C(F)(F)F)cc3Cl)c(F)cc2Cl)O1 (racemic) [Compound 141]
10: activity level (fresh weight growth control rate), Abutilon theophrasti (Abutilon theophrasti) | activity level (fresh weight growth control rate), Amaranthus retroflexus (Amaranthus retroflexus) | activity level (fresh weight growth control rate), Digitaria sanguinalis (Digitaria sanguinalis) | activity level (fresh weight growth control rate), Echinochloa crus-galli (Echinochloa crus-galli) | activity level (fresh weight growth control rate), Setaria viridis (Setaria viridis) | activity level (fresh weight growth control rate), Veronica polita (Veronica polita)

CC1(C(=O)ON=Cc2ccco2)ON=C(c2cc(-c3ncc(C(F)(F)F)cc3Cl)c(F)cc2Cl)O1 (racemic) [Compound 143]
10: activity level (fresh weight growth control rate), Abutilon theophrasti (Abutilon theophrasti) | activity level (fresh weight growth control rate), Amaranthus retroflexus (Amaranthus retroflexus) | activity level (fresh weight growth control rate), Digitaria sanguinalis (Digitaria sanguinalis) | activity level (fresh weight growth control rate), Echinochloa crus-galli (Echinochloa crus-galli) | activity level (fresh weight growth control rate), Setaria viridis (Setaria viridis) | activity level (fresh weight growth control rate), Veronica polita (Veronica polita)

Cc1ccc(C=NOC(=O)C2(C)ON=C(c3cc(-c4ncc(C(F)(F)F)cc4Cl)c(F)cc3Cl)O2)s1 (racemic) [Compound 144]
10: activity level (fresh weight growth control rate), Abutilon theophrasti (Abutilon theophrasti) | activity level (fresh weight growth control rate), Amaranthus retroflexus (Amaranthus retroflexus) | activity level (fresh weight growth control rate), Digitaria sanguinalis (Digitaria sanguinalis) | activity level (fresh weight growth control rate), Echinochloa crus-galli (Echinochloa crus-galli) | activity level (fresh weight growth control rate), Setaria viridis (Setaria viridis) | activity level (fresh weight growth control rate), Veronica polita (Veronica polita)

CC1(C(=O)ON=C2CCCC2)ON=C(c2cc(-c3ncc(C(F)(F)F)cc3Cl)c(F)cc2Cl)O1 (racemic) [Compound 145]
10: activity level (fresh weight growth control rate), Abutilon theophrasti (Abutilon theophrasti) | activity level (fresh weight growth control rate), Amaranthus retroflexus (Amaranthus retroflexus) | activity level (fresh weight growth control rate), Digitaria sanguinalis (Digitaria sanguinalis) | activity level (fresh weight growth control rate), Echinochloa crus-galli (Echinochloa crus-galli) | activity level (fresh weight growth control rate), Setaria viridis (Setaria viridis) | activity level (fresh weight growth control rate), Veronica polita (Veronica polita)

CC1(C(=O)ON=C(c2ccccc2)c2ccccc2)ON=C(c2cc(-c3ncc(C(F)(F)F)cc3Cl)c(F)cc2Cl)O1 (racemic) [Compound 146]
10: activity level (fresh weight growth control rate), Abutilon theophrasti (Abutilon theophrasti) | activity level (fresh weight growth control rate), Amaranthus retroflexus (Amaranthus retroflexus) | activity level (fresh weight growth control rate), Digitaria sanguinalis (Digitaria sanguinalis) | activity level (fresh weight growth control rate), Echinochloa crus-galli (Echinochloa crus-galli) | activity level (fresh weight growth control rate), Setaria viridis (Setaria viridis) | activity level (fresh weight growth control rate), Veronica polita (Veronica polita)

Cc1cc(C)n(C(=O)C2(C)ON=C(c3cc(-c4ncc(C(F)(F)F)cc4Cl)c(F)cc3Cl)O2)n1 (racemic) [Compound 156]
10: activity level (fresh weight growth control rate), Abutilon theophrasti (Abutilon theophrasti) | activity level (fresh weight growth control rate), Amaranthus retroflexus (Amaranthus retroflexus) | activity level (fresh weight growth control rate), Digitaria sanguinalis (Digitaria sanguinalis) | activity level (fresh weight growth control rate), Echinochloa crus-galli (Echinochloa crus-galli) | activity level (fresh weight growth control rate), Setaria viridis (Setaria viridis) | activity level (fresh weight growth control rate), Veronica polita (Veronica polita)

CC(=NOC(=O)C1(C)ON=C(c2cc(-c3ncc(C(F)(F)F)cc3Cl)c(F)cc2Cl)O1)C1CC1 (racemic) [Compound 172]
10: activity level (fresh weight growth control rate), Abutilon theophrasti (Abutilon theophrasti) | activity level (fresh weight growth control rate), Amaranthus retroflexus (Amaranthus retroflexus) | activity level (fresh weight growth control rate), Digitaria sanguinalis (Digitaria sanguinalis) | activity level (fresh weight growth control rate), Echinochloa crus-galli (Echinochloa crus-galli) | activity level (fresh weight growth control rate), Setaria viridis (Setaria viridis) | activity level (fresh weight growth control rate), Veronica polita (Veronica polita)

CC1(C(=O)O)ON=C(c2cc(-c3ncc(C(F)(F)F)cc3Cl)c(F)cc2Cl)O1 (stereo not drawn) [Compound 1]
10: activity level (fresh weight growth control rate), Abutilon theophrasti (Abutilon theophrasti) | activity level (fresh weight growth control rate), Amaranthus retroflexus (Amaranthus retroflexus) | activity level (fresh weight growth control rate), Digitaria sanguinalis (Digitaria sanguinalis) | activity level (fresh weight growth control rate), Echinochloa crus-galli (Echinochloa crus-galli) | activity level (fresh weight growth control rate), Setaria viridis (Setaria viridis) | activity level (fresh weight growth control rate), Veronica polita (Veronica polita)

COC(=O)C1ON=C(c2cc(-c3ncc(C(F)(F)F)cc3Cl)c(F)cc2Br)O1 (stereo not drawn) [Compound 2]
10: activity level (fresh weight growth control rate), Abutilon theophrasti (Abutilon theophrasti) | activity level (fresh weight growth control rate), Amaranthus retroflexus (Amaranthus retroflexus) | activity level (fresh weight growth control rate), Digitaria sanguinalis (Digitaria sanguinalis) | activity level (fresh weight growth control rate), Echinochloa crus-galli (Echinochloa crus-galli) | activity level (fresh weight growth control rate), Setaria viridis (Setaria viridis) | activity level (fresh weight growth control rate), Veronica polita (Veronica polita)
